Format in all cases: in vivo
In experiment [1] the test system is potato leafhopper (Empoasca fabae (Harris)). The experiment can be described thus: Test D: control of potato leafhopper through contact and/or systemic means. The settings on record: 144 h, assessed after 6 days; for mortality at 50 ppm: sprayed at 50 ppm; for mortality at 250 ppm: sprayed at 250 ppm. The method, then: (§1) Test compounds were formulated using a solution containing 10% acetone, 90% water and 300 ppm Activator 90® non-ionic surfactant (Loveland Products, Loveland, Colo., USA). The formulated compounds were applied in 1 mL of liquid through an atomizer nozzle positioned 1.27 cm (0.5 inches) above the top of each test unit. Test compounds were sprayed at the rates indicated, and each test was replicated three times.
For evaluating control of potato leafhopper (Empoasca fabae (Harris)) through contact and/or systemic means, the test unit consisted of a small open container with a 5-6-day-old Soleil bean plant (primary leaves emerged) inside. White sand was added to the top of the soil, and one of the primary leaves was excised prior to application of the test compound.
Test compounds were formulated and sprayed at 250 and/or 50 ppm. After spraying of the formulated test compound, the test units were allowed to dry for 1 hour before they were post-infested with 5 potato leafhoppers (18-to-21-day-old adults). A black, screened cap was placed on the top of the test unit, and the test units were held for 6 days in a growth chamber at 20° C. and 70% relative humidity. Each test unit was then visually assessed for insect mortality.

For experiment [2], the system named is green peach aphid (Myzus persicae (Sulzer)). The experiment can be described thus: Test E: control of green peach aphid through contact and/or systemic means. The following applies: 144 h, assessed after 6 days; for mortality at 50 ppm: sprayed at 50 ppm; for mortality at 250 ppm: sprayed at 250 ppm. The method, then: as §1
For evaluating control of green peach aphid (Myzus persicae (Sulzer)) through contact and/or systemic means, the test unit consisted of a small open container with a 12-15-day-old radish plant inside. This was pre-infested by placing on a leaf of the test plant 30-40 aphids on a piece of leaf excised from a culture plant (cut-leaf method). The aphids moved onto the test plant as the leaf piece desiccated. After pre-infestation, the soil of the test unit was covered with a layer of sand.
Test compounds were formulated and sprayed at 250 and/or 50 ppm. After spraying of the formulated test compound, each test unit was allowed to dry for 1 hour and then a black, screened cap was placed on top. The test units were held for 6 days in a growth chamber at 19-21° C. and 50-70% relative humidity. Each test unit was then visually assessed for insect mortality.

Experiment [3] has as its system cotton melon aphid (Aphis gossypii (Glover)). Nature of the experiment: Test F: control of cotton melon aphid through contact and/or systemic means. The following applies: 144 h, assessed after 6 days; for mortality at 50 ppm: sprayed at 50 ppm; for mortality at 250 ppm: sprayed at 250 ppm.
Experiment [4] deals with sweetpotato whitefly (Bemisia tabaci (Gennadius)). The experiment can be described thus: Test G: control of sweetpotato whitefly through contact and/or systemic means. The following applies: 312 h, assessed after 13 days; for mortality at 50 ppm: sprayed at 50 ppm; for mortality at 250 ppm: sprayed at 250 ppm. The procedure: as §1
For evaluating control of the sweetpotato whitefly (Bemisia tabaci (Gennadius)) through contact and/or systemic means, the test unit consisted of a small open container with a 12-14-day-old cotton plant or 7-9-day-old soybean plant inside. Prior to the spray application, both cotyledons were removed from the plant, leaving one true leaf for the assay. Adult whiteflies were allowed to lay eggs on the plant and then were removed from the test unit. Cotton or soybean plants infested with at least 15 eggs were submitted to the test for spraying.
Test compounds were formulated and sprayed at 250 and/or 50 ppm. After spraying, the test units were allowed to dry for 1 hour. The cylinders were then removed, and the units were taken to a growth chamber and held for 13 days at 28° C. and 50-70% relative humidity. Each test unit was then visually assessed for insect mortality.

Drawing on patent US20210400977A1, “META-DIAMIDE COMPOUNDS FOR CONTROLLING INVERTEBRATE PESTS” (FMC Corporation, priority 2018, published 2021), this text covers mortality for 19 molecules.

Turning to `O=C(NCc1cc(NC(=O)C2C(c3ccc(F)c(C(F)(F)F)c3)C2(Cl)Cl)ccc1F)C1CC1` (stereo not shown) [Compound 77, 2,2-dichloro-N-[3-[[(cyclopropylcarbonyl)amino]methyl]-4-fluorophenyl]-3-[4-fluoro-3-(trifluoromethyl)phenyl]cyclopropanecarboxamide], the mortality (in general, the percentage killed) at 50 ppm in experiment [1] is at least 80%; in experiment [2], at least 80%; in experiment [3], at least 80%; in experiment [4], at least 70%. In experiment [4], this molecule displayed a mortality at 250 ppm of at least 70%.

For `O=C(NCc1cc(NC(=O)C2C(c3cc(Cl)cc(Cl)c3)C2(Cl)Cl)ccc1Cl)C1CC1` (stereo not shown) [Compound 148], in experiment [4], the mortality at 50 ppm is at least 70%.

With `O=C(CC(F)(F)F)NCc1cc(NC(=O)C2C(c3ccc(F)c(C(F)(F)F)c3)C2(Cl)Cl)ccc1F` (stereo not shown) [Compound 78, 2,2-dichloro-3-[4-fluoro-3-(trifuoromethyl)phenyl]-N-[4-fluoro-3-[[(3,3,3-trifluoro-1-oxopropyl)amino]methyl]phenyl]cyclopropanecarboxamide], the mortality at 50 ppm in experiment [1] is at least 80%; in experiment [2] it was at least 80%; in experiment [3], at least 80%; in experiment [4], at least 70%.

Turning to `O=C(CC(F)(F)F)NCc1cc(NC(=O)C2C(c3cc(F)cc(Cl)c3)C2(Cl)Cl)ccc1F` (stereo not shown) [Compound 129, 2,2-dichloro-3-(3-chloro-5-fluorophenyl)-N-[4-fluoro-3-[[(3,3,3-trifluoro-1-oxopropyl)amino]methyl]phenyl]cyclopropanecarboxamide], the mortality at 50 ppm was at least 80% in experiment [1], at least 80% in experiment [2], at least 80% in experiment [3] and at least 70% in experiment [4]. The molecule also displayed a mortality at 250 ppm in experiment [4] of at least 70%.

Regarding `CC(NC(=O)C1CC1)c1cc(NC(=O)C2C(c3cc(Cl)cc(Cl)c3)C2(Cl)Cl)ccc1Cl` (stereo not shown) [Compound 87], in experiment [1], the mortality at 50 ppm was at least 80%.

On to `CCC(=O)NCc1cc(NC(=O)C2C(c3cc(Cl)cc(Cl)c3)C2(Cl)Cl)ccc1F` (stereo not shown) [Compound 55, 2,2-dichloro-3-(3,5-dichlorophenyl)-N-[4-fluoro-3-[(propanoylamino)methyl]phenyl]cyclopropane-1-carboxamide], for which the mortality at 50 ppm in experiment [1], in experiment [2] and in experiment [3] was at least 80% throughout. In addition, the mortality at 250 ppm in experiment [1], in experiment [2] and in experiment [3] was at least 80% throughout.

Molecule `O=C(CC(F)(F)F)NCc1cc(NC(=O)C2C(c3ccc(F)c(C(F)(F)F)c3)C2(Cl)Cl)ccc1Cl` (stereo not shown) [Compound 116, 2,2-dichloro-N-[4-chloro-3-[[(3,3,3-trifluoro-1-oxopropyl)amino]methyl]phenyl]-3-[4-fluoro-3-(trifluoromethyl)phenyl]cyclopropanecarboxamide] displayed a mortality at 50 ppm in experiment [1] of at least 80%.

Turning to `O=C(Nc1ccc(Cl)c(CNC(=O)C(F)(F)F)c1)C1C(c2ccc(Cl)c(Cl)c2)C1(Cl)Cl` (stereo not shown) [Compound 175, 2,2-dichloro-N-[4-chloro-3-[[(2,2,2-trifluoroacetyl)amino]methyl]phenyl]-3-(3,4-dichlorophenyl)cyclopropanecarboxamide], the mortality at 50 ppm in experiment [1], in experiment [2] and in experiment [3] was at least 80% each time.

On to `O=C(NCc1cc(NC(=O)C2C(c3ccc(F)c(C(F)(F)F)c3)C2(Cl)Cl)ccc1Cl)C1CC1` (stereo not shown) [Compound 39, 2,2-dichloro-N-[4-chloro-3-[[(cyclopropylcarbonyl)amino]methyl]phenyl]-3-[4-fluoro-3-(trifluoromethyl)phenyl]cyclopropanecarboxamide], for which the mortality at 50 ppm is at least 80% in experiment [1], at least 80% in experiment [2], at least 80% in experiment [3] and at least 70% in experiment [4]. Moreover, the mortality at 250 ppm was at least 80% in experiment [1], at least 80% in experiment [2], at least 80% in experiment [3] and at least 70% in experiment [4].

In the case of `O=C(Nc1ccc(Cl)c(CNC(=O)C(F)(F)F)c1)C1C(c2ccc(F)c(Cl)c2)C1(Cl)Cl` (stereo not shown) [Compound 19, 2,2-dichloro-3-(3-chloro-4-fluorophenyl)-N-[4-chloro-3-[[(2,2,2-trifluoroacetyl)amino]methyl]phenyl]cyclopropanecarboxamide], the mortality at 50 ppm in experiment [1] was at least 80%; in experiment [2], at least 80%; in experiment [3], at least 80%; in experiment [4], at least 70%. In addition, the mortality at 250 ppm in experiment [1] is at least 80%; in experiment [2] it was at least 80%; in experiment [3], at least 80%; in experiment [4], at least 70%.

`O=C(CC(F)(F)F)NCc1cc(NC(=O)C2C(c3cc(F)c(F)c(F)c3)C2(Cl)Cl)ccc1Cl` (stereo not shown) [Compound 118, 2,2-dichloro-N-[4-chloro-3-[[(3,3,3-trifluoro-1-oxopropyl)amino]methyl]phenyl]-3-(3,4,5-trifluorophenyl)cyclopropanecarboxamide] showed a mortality at 50 ppm in experiment [1] of at least 80%. The molecule also showed a mortality at 250 ppm in experiment [4] of at least 70%.

Regarding `O=C(NCc1cc(NC(=O)C2C(c3cc(Cl)cc(Cl)c3)C2(Cl)Cl)ccc1Cl)C1CC1` (stereo not shown) [Compound 62, 2,2-dichloro-N-[4-chloro-3-[(cyclopropanecarbonylamino)methyl]phenyl]-3-(3,5-dichlorophenyl)cyclopropane-1-carboxamide], the mortality at 50 ppm in experiment [1], in experiment [2] and in experiment [3] was at least 80% throughout. Further, the mortality at 250 ppm in experiment [1] was at least 80%; in experiment [2], at least 80%; in experiment [3], at least 80%; in experiment [4], at least 70%.

As for `O=C(CC(F)(F)F)NCc1c(F)ccc(NC(=O)C2C(c3ccc(F)c(Cl)c3)C2(Cl)Cl)c1F` (stereo not shown) [Compound 170, 2,2-dichloro-3-(3-chloro-4-fluorophenyl)-N-[2,4-difluoro-3-[[(3,3,3-trifluoro-1-oxopropyl)amino]methyl]phenyl]cyclopropanecarboxamide], the mortality at 50 ppm in experiment [1], in experiment [2] and in experiment [3] was at least 80% throughout.

Regarding `O=C(CC(F)(F)F)NCc1cc(NC(=O)C2C(c3ccc(Cl)c(Cl)c3)C2(Cl)Cl)ccc1F` (stereo not shown) [Compound 79, 2,2-dichloro-3-(3,4-dichlorophenyl)-N-[4-fluoro-3-[[(3,3,3-trifluoro-1-oxopropyl)amino]methyl]phenyl]cyclopropanecarboxa-mide], the mortality at 50 ppm in experiment [1] and in experiment [3] was at least 80% in each case. In experiment [4], this molecule showed a mortality at 250 ppm of at least 70%.

As to `CC(=O)NCc1cc(NC(=O)C2C(c3cc(Cl)cc(Cl)c3)C2(F)F)ccc1Cl` (stereo not shown) [Compound 47], the mortality at 50 ppm in experiment [1] and in experiment [3] was at least 80% each time. The mortality at 250 ppm in experiment [1], in experiment [2] and in experiment [3] was at least 80% throughout.

Regarding `O=C(NCc1c(F)ccc(NC(=O)C2C(c3ccc(F)c(Cl)c3)C2(Cl)Cl)c1F)C1CC1` (stereo not shown) [Compound 164, 2,2-dichloro-3-(3-chloro-4-fluorophenyl)-N-[3-[[(cyclopropylcarbonyl)amino]methyl]-2,4-difluorophenyl]cyclopropanecarboxamide], in experiment [1], the mortality at 50 ppm is at least 80%.

As to `O=C(CC(F)(F)F)NCc1cc(NC(=O)C2C(c3cc(F)c(Cl)c(F)c3)C2(Cl)Cl)ccc1F` (stereo not shown) [Compound 169, 2,2-dichloro-3-(4-chloro-3,5-difluorophenyl)-N-[4-fluoro-3-[[(3,3,3-trifluoro-1-oxopropyl)amino]methyl]phenyl]cyclopropanecarboxamide], the mortality at 50 ppm in experiment [1], in experiment [2] and in experiment [3] was at least 80% throughout.

Turning to `CCC(=O)NC(C)c1cc(NC(=O)C2C(c3cc(Cl)cc(Cl)c3)C2(Cl)Cl)ccc1Cl` (stereo not shown) [Compound 86], in experiment [1], the mortality at 50 ppm is at least 80%.

Consider `O=C(NCc1cc(NC(=O)C2C(c3cc(Cl)cc(Cl)c3)C2(F)F)ccc1Cl)C1CC1` (stereo not shown) [Compound 48], for which, in experiment [1], the mortality at 50 ppm is at least 80% and the mortality at 250 ppm is at least 80%. The same molecule had a mortality at 250 ppm in experiment [3] of at least 80%.
